Reference: publication PMC11641365, “Evaluation of In Vitro Biological Activity of Flavanone/Chromanone Derivatives: Molecular Analysis of Anticancer Mechanisms in Colorectal Cancer” (International Journal of Molecular Sciences, 2024)

Experiments:
Type in all cases: cell-based, human
LoVo = test: MTT test after pre-incubation with antioxidants NAC or Trolox; details: vs cells without antioxidant pre-incubation
Experimental: Moreover, the elevation of ROS levels was accompanied by a decrease in intracellular GSH. To investigate the role of ROS in the cytotoxic activity of flavonoid derivatives against cancer cells, LoVo cancer cells were pre-treated with antioxidants, NAC or a water-soluble derivative of vitamin E (Trolox), for 1 h before exposure to the studied compounds. Subsequently, the MTT assay was performed.
To elucidate the involvement of ROS in the cytotoxic effects of the investigated compounds, cells were pre-treated with the vitamin E (Trolox, Sigma-Aldrich, St. Louis, MO, USA) or N-Acetylcysteine (NAC) antioxidants for 1 h. Cells were seeded into sterile, colorless 96-well microplates at a density of 6–8 × 10^3 cells/mL, contingent upon the cell line. Following a 24 h culture period, Trolox or NAC was added at a final concentration of 50 μM and 3 mM, respectively. After 1 h of incubation, the antioxidants were removed by washing, and test compounds were administered at appropriate concentrations (10–200 μM) in fresh cell culture medium, followed by a 24 h incubation. The MTT assay was then conducted under identical experimental conditions, as detailed in Section 2.2.

HT-29 [1] = test: Cell cycle analysis via flow cytometry (propidium iodide); details: compound at IC50, 24 h, vs control
Experimental: The most commonly used fluorescent dyes for cell cycle analysis are fluorochromes that penetrate the cell membrane into the interior of permeabilized cells and bind stoichiometrically to DNA via intercalation, e.g., DAPI, propidium iodide (PI). The analysis is performed on cells fixed in ethanol. In this work, the cell cycle analysis was performed using the method described by Darzynkiewicz and Juan.
Cells (10 × 10^3) were seeded in 35 mm dishes and cultured in the medium for 24 h to attain the logarithmic growth phase. […] Subsequently, cells were trypsinized and centrifuged for 10 min at 400× g at 4 °C. The cell suspension in 100 μL of PBS was fixed in 1 mL of 70% ethanol (−20 °C) and stored at this temperature until analysis. Immediately before analysis, the ethanol-fixed cell suspension was centrifuged at 10,000 rpm for 10 min at 4 °C. The pellet was washed with cold (4 °C) PBS to remove residual ethanol, and the cell suspension was centrifuged again under the same conditions. A volume of 300 μL of PBS containing 4 mg/mL propidium iodide (final concentration 75 μM) and 1 mg/mL RNAse A (final concentration 20 μg/mL) was added to the cell pellet and incubated for at least 30 min at 37 °C in the dark. Stained cells were analyzed using a flow cytometer (Becton Dickinson, Franklin Lakes, NJ, USA), counting 10,000 cells in each sample. Data were analyzed using FlowJo 10.10 software (FlowJo, Williamson Way Ashland, OR, USA).

HT-29 [2] = test: Intracellular GSH level, monochlorobimane (MCB) probe; details: compound at IC50, 24 h, vs control
Experimental: The spectrofluorimetric method with monochlorobimane (MCB; Sigma-Aldrich; St. Louis, MO, USA) was used to determine GSH. Monochlorobimane reacts with glutathione in a reaction catalyzed by cellular glutathione S-transferase. The reaction produces a fluorescent bimane-glutathione conjugate (GSH-MCB). A major advantage of MCB is its ability to penetrate the cell membrane, which is why it is used as a probe to determine the amount of GSH in living cells.
Cells were seeded in black 96-well fluorometric microplates at a density of 10 × 10^3 cells/mL. […] Following compound incubation, the medium was removed, and the cell monolayers were washed twice with HBSS (140 mM NaCl, 5 mM KCl, 0.8 mM MgCl2, 1.8 mM CaCl2, 1 mM Na2HPO4, 10 mM HEPES, and 1% glucose). A solution of MCB at a final concentration of 40 μM was added to each well and incubated in a CO2 cell culture incubator at 37 °C for 20 min. A 40 mM MCB stock solution was prepared by dissolving 9 mg of the reagent in 1 mL of absolute ethanol. Fluorescence was measured using a Perkin-Elmer LS-5B spectrofluorometer (Waltham, MA, USA) at the following excitation and fluorescence emission wavelengths: λex = 380 nm/λem = 470 nm. After incubation with MCB, the cells were lysed with 50 μL of lysis buffer (10 mM TRIS-HCl; pH 8 containing 0.1% Triton X-100). In order to normalize the number of cells in individual samples, the amount of DNA was determined by adding 50 μL of ethidium bromide (EB, final concentration 0.2 mM) to each well after measuring the MCB fluorescence and measuring the EB fluorescence at an excitation wavelength of λex = 530 nm and an emission wavelength of λem = 590 nm. The results obtained using the standard curve were converted to nM of GSH.

HT-29 [3] = test: Autophagy induction, monodansylcadaverine (MDC) fluorescence; details: compound at IC50, 24 h, vs control
Experimental: Autophagy induction in cells treated with the tested drugs was determined by measuring Monodansylcadaverine (MDC; Sigma-Aldrich; St. Louis, MO, USA) fluorescence according to a modified method described by Vázquez. […] In the cell, MDC accumulates in lipid-rich cell membranes. It has been shown that MDC can be used as a dye for detecting autophagy, as it accumulates in autophagolysosomes as a result of interaction with membrane lipids.
Cells were seeded in black 96-well fluorometric microplates at a density of 10 × 10^3 cells/mL. […] Following compound incubation, the medium was removed, and the cell monolayers were washed twice with HBSS (140 mM NaCl, 5 mM KCl, 0.8 mM MgCl2, 1.8 mM CaCl2, 1 mM Na2HPO4, 10 mM HEPES, and 1% glucose). A solution of MDC at a final concentration of 50 μM was added to each well and incubated in a CO2 cell culture incubator at 37 °C for 15 min. After incubation with MDC, the probe was removed, and the cells were lysed with 50 μL of lysis buffer (10 mM TRIS-HCl; pH 8 containing 0.1% Triton X-100). After lysis, fluorescence was measured at an excitation wavelength of λex = 390 nm and an emission wavelength of λem = 460 nm using a Perkin-Elmer LS-5B spectrofluorometer (Waltham, MA, USA). In order to normalize the number of cells in individual samples, the amount of DNA was determined by adding 50 μL of EB (final concentration 0.2 mM) to each well after measuring the MCB fluorescence and measuring the EB fluorescence at an excitation wavelength of λex = 530 nm and an emission wavelength of λem = 590 nm. The results were calculated as the ratio of MDC fluorescence to EB fluorescence.

SMILES | Change of the IC50 value after pre-incubation with Trolox (LoVo) | Increase in the G2/M phase cell percentage (HT-29 [1]) [%] | Decrease in GSH levels (HT-29 [2]) | Increase in MDC fluorescence intensity (autophagy) (HT-29 [3]) [%]
COc1cccc(/C=C2/C(=O)c3ccccc3OC2c2ccccc2)c1 (centres unmarked) [Compound 3] | Statistically significant increases in the IC50 value | – | – | –
O=C1/C(=C/c2ccccc2)C(c2ccccc2)Oc2ccccc21 (centres unmarked) [Compound 5] | Statistically significant increases in the IC50 value | 25 | 25–30% | 20
O=C1/C(=C/c2ccccc2)COc2ccccc21 [Compound 1] | – | 25 | 25–30% | 25
